These results are taken from publication PMC4459817, “Vasculotide reduces endothelial permeability and tumor cell extravasation in the absence of binding to or agonistic activation of Tie2” (EMBO Molecular Medicine, 2015).

The assay relates to Tie2+ ECs (HMVEC-LBl). In words: MTS cell viability assay, endothelial cells. It counts as cell-based, human. The conditions noted are these: for IC50: Homo sapiens, Endothelial cell, 48 h, SU in MTS viability assay, predetermined from dose-response curves, cell line of IC50 not clearly printed. As for the experimental part: TCs were cultured in DMEM High Glucose basal media supplemented with 5% FBS and grown humidified incubators at 37 °C, 21%O2 and 5%CO2 unless otherwise specified. LM2-4 luc is a highly metastatically aggressive variant of the human breast carcinoma MDA-MB-231 cell line (derived through serial in vivo selection of lung metastases from orthotopic implantations in immunodeficient mice) that has been transfected with a firefly luciferase vector (Man et al, 2007; Ebos et al, 2009). HT29luc is a human colon carcinoma cell line also transfected with the luciferase gene (Hackl et al, 2013). SN12luc refers to a luciferase-tagged and highly metastatic clone of a human renal cell carcinoma cell line, SN12-PM6-L1luc (Jedeszko et al, 2015). MeWo is a human melanoma cell line (Ebos et al, 2009).
2. Endothelial cells (ECs)
ECs were grown in humidified incubators at 37 °C, 21%O2 and 5%CO2 unless otherwise specified.
Primary human microvascular ECs derived from adult lung blood vessels (HMVEC-LBl, Lonza CC-2815 or HLMEC ) or neonatal dermal blood vessels (HMVEC-DBl, Lonza CC-2813 or HDMEC) were grown in EBM-2 basal media (Lonza CC-3156), supplemented with EGM-2-MV growth factors (Lonza CC-4147, which includes 5% FBS and 2 ng/mL VEGF). Primary human umbilical vein ECs (HUVECs) were grown on 1% gelatinized plates in F12K media, supplemented with 10% FBS, 0.1 mg/mL heparin sodium, 10 ng/mL EGF, 10 ng/mL VEGF, 5 ng/mL bFGF and penicillin + streptomycin + 2mM L-glutamine (P/S/Glut). Transformed human EA.hy926 and murine MS1 ECs were grown in DMEM + 10% FBS + P/S/Glut (+ HAT for EA.hy926).
3. […]
5,000 LM2-4luc or HMVEC-LBl cells, in 100uL of their regular growth media, were seeded per well on a 96-well plate. […] Absorbances were read at 490nm and background-corrected with reference 560nm readings or acellular treatment-only […]
4. […] Protein concentrations in TC-CM vs. control media were measured using: a Quantikine ELISA kit (R&D Systems DVE00) for human VEGF; a FlowCytomix Multiplex kit (eBioscience BMS810FF) for human IL-6 and IL-8; and a BCA protein assay kit (Thermo Scientific) for total protein.
(In general: Tetrazolium assays rely on reduction of a dye to a coloured formazan, in cell work by metabolically active cells.)

What is called IC50 is the point on the concentration scale where inhibition reaches its midpoint. With `CCN(CC)CCNC(=O)c1c(C)[nH]c(/C=C2\C(=O)Nc3ccc(F)cc32)c1C` [sunitinib, reference compound], the 50% inhibitory concentration (IC50) was 5 µM ('VEGF-rich' media (0.5% FBS + 50 ng/mL VEGF)) and 2 µM ('normal' media (5% FBS)). In the case of “CHHHRHSF [Vasculotide, 4-armed maleimide-functionalized polyethylene glycol (PEG) backbone to link together four cysteine-capped T7 peptides, that is, CHHHRHSF]”, the “interference with SU inhibition of ECs” value (48 h MTS, VT + SU, Supplementary Fig S2) is “did not interfere with SU inhibition of Tie2^+ ECs”.
